Measured values reported in patent publication US8278285B2, “Gastric carcinoma gene ZNF312b, a protein translated from the gene, and a diagnostic kit and a screening method for anticancer agents using the same” (Korea Research Institute of Bioscience and Biotechnology, priority 2007, dated 2012).

How the values were obtained:
[1] = tested on: K-ras / ERK pathway; test: Western blotting of cell proliferation signal pathway after ZNF312b inhibition; format: cell-based, human; conditions: stomach cancer cell line transfected with siRNA, FIG. 24
Protocol: First, lysis buffer A [20 mM HEPES (pH7.5), 150 mM NaCl, 1 mM EDTA, 2 mM EGTA, 1% Triton X-100, 10% glycerol, protease cocktail I, II (Sigma, USA)] was added to the cells, which stood at 4° C. for 20 minutes. The cell lysate was transferred into a new tube, followed by centrifugation at 4° C. at 15,000 rpm for 10 minutes to obtain protein. The cell lysate was heated at 95° C. for 10 minutes after adding 5× sample buffer, resulting in gel loading sample which proceeded to SDS PAGE gel electrophoresis. The protein bands separated according to their molecular weights by the above electrophoresis were transferred onto nitrocellulose membrane by using transfer kit (Bio-Rad, USA), followed by blocking for one hour with 5% skim milk. Next, each antibody [HA antibody for the detection of ZNF312b, and tubulin antibody for the detection of the control tubulin] was treated thereto at 4° C. for 12 hours. The membrane was washed with TBST buffer (0.2% Tween 20), and then treated with a secondary antibody for 1 hour. The membrane was washed with TBST and developed using HRP detection kit (AB frontier, Korea).
To investigate whether the signal pathway system involved in the cell proliferation of stomach cancer cell line was affected by inhibition of ZNF312b gene, the present inventors inhibited the expression of ZNF312b in stomach cancer cell line by transfecting the cell line with si-ZNF312b-1. […]

[2] = tested on: ZNF312b gene; test: ZNF312b gene expression inhibition by siRNA; format: cell-based, human; conditions: compared among three siRNAs, FIG. 3
Description: To investigate the cell proliferation capacity of the stomach cancer cell line after inhibiting the expression of ZNF312b gene, three kinds of siRNAs [si-ZNF312b-1: 5′-GCA CTC TCT GCA TCT CAA C-3′ (SEQ. ID. NO: 6), si-ZNF312b-2: 5′-GTG TGT GGA AAG GTC TTT A-3′ (SEQ. ID. NO: 7), and si-ZNF312b-3′: 5′-GCA GTT CAA GTG CAA TAT C-3′ (SEQ. ID. NO: 8)] comprising 19 nucleotides of ZNF312b nucleotide sequence (SEQ. ID. NO: 1) were constructed, which were used for the investigation of ZNF312b gene expression inhibition.

si-ZNF312b-1: siRNA of 19 nucleotides of ZNF312b sequence, 5′-GCA CTC TCT GCA TCT CAA C-3′ (SEQ. ID. NO: 6) (sense GCACTCTCTGCATCTCAAC; listed as DNA, chemistry not given here)
ERK pathway activity (phosphorylation of MEK1/2 and ERK1/2) [1]: inactivation of ERK pathway
K-ras expression [1]: decrease of K-ras expression
ZNF312b gene expression inhibition [2]: highest inhibition activity
